Laboratory results reported in US9861647B2 (Prelief Inc., priority 2007, dated 2018).

Assays:
Type in all cases: in vivo
nosebleeds = experiment: Stanching nosebleeds at higher CGP levels; settings: higher levels tested, about 7.5% (w/w) or above
[1] = test system: human subject having asthma; experiment: Application of CGP composition to a human subject having asthma
Excerpt: A CGP composition similar to that described in Example 3, containing about 2% (w/w) CGP, was used in this study. A second human subject, a person having a life history of asthma, participated in this study.
The subject intentionally stopped using Advair Diskus (steroid) for about 2 weeks. Their allergies to molds were triggered by a ‘musty’ indoor environment resulting from several rainy and humid days. The allergies in turn triggered their asthma. The subject had felt a slight reduction in their airflow capacity for a few days, but had withheld use of albuterol inhaler (asthma rescue medication) during the day and only used it for severe wake-ups during the night. The subject had to use albuterol inhaler for three contiguous nights prior to the night described below.
In that night, at about 8:30 PM, the subject was experiencing difficulty breathing and wheezing, which signaled the start of an asthma attack. At about 8:35 PM, the subject applied two sprays of the CGP composition into each nostril and one spray of the CGP composition into their mouth for inhalation. An average spray delivery contained about 200 mg of the composition. […] At about 8:52 PM, the subject did two additional oral inhalations of the composition. At about 8:55 PM, the subject noticed that their wheeze and tightness in chest were relieved about 80% or more. All nasal drips had been sniffed back in. At about 8:58 PM, the subject perceived a gradual improvement and experienced no labor in breathing. At about 9:05 PM, the subject felt better, but desired full relief and wanted to increase breathing capacity. They applied one inhalation of the composition into each nostril; paused to get full breath, then applied two deep oral inhalations of the composition at about 9:07 PM. At about 9:27 PM, the subject felt fine and substantially back to normal. At about 9:37 PM, the subject felt improved. At about 10:16 PM, the subject felt fully (100%) recovered. At about 11:00 PM, the subject felt fine, no worry, and went to bed. […] At about 8:00 AM the next day, the subject felt a little tightness in chest. Instead of using 2 puffs of albuterol to start the day as they normally did, the subject used the CGP composition. They applied two sprays of the composition into each nostril and two sprays of the composition into their mouth for inhalation.

[2] = test system: human subject having a respiratory condition; experiment: Application of CGP (forced nasal lavage, spray/mist) to a human subject with post nasal drip, nasal obstruction and chronic cough; settings: one subject
Excerpt: CGP was incorporated into samples of a lavage or a spray product at varying concentrations, along with different sweetening/moisturizing components (sorbitol, glycerin) at varying levels (0.5% to 7.5% by weight), appropriate food/drug grade fungistats and bacteristats (methyl paraben and benzalkonium chloride), and light flavorings of several types (peppermint, spearmint and orange) in some iterations.
A first human subject for laboratory/home trials was a person in good general health. […] The subject has experienced a decades-long post nasal drip (PND) as an adult, nasal obstruction (mucus, septum). The subject has experienced coughs that have been of weeks-long and, on occasion, months-long duration, following seasonal flu or colds. The subject has experienced chronic throat-clearing from PND and chronic cough even when not post-respiratory illness, which they ascribe to bronchitis. […] The subject breathed almost exclusively through mouth as a child because of nasal obstruction. The subject breathes through both nose and mouth as an adult, with breathing through nose occasionally mildly problematic, requiring active conscious engagement, although the subject was never “short of breath” in terms of lung capacity, etc.
The subject performed forced nasal lavage once daily for about two weeks. The forced nasal lavage was conducted intranasally over skin and normally in a shower. An aqueous solution or suspension of CGP at various concentration, such as about 7.5%, 3.75%, 2.5%, 2%, 1.5% by weight of dry CGP, was forced into one nostril and out of the other nostril using a closed plastic bottle with an internal stem feed. This procedure was repeated for each side of the nostrils. Some product was swallowed via nasal route and there was approx. 2 oz. fluid per nostril.
The subject applied CGP into their nostrils in a spray or a mist. A closed small plastic bottle with internal stem feed constructed to deliver fluid contents as mist was used. Typically, one application was performed in the morning. Each application consisted of two sprays per nostril, alternating sides, with full simultaneous deep breath inhalation or inspiration to draw the product up the nose and into the airway passages. The spray was also, on occasion, applied directly through the mouth to the throat with 1 or 2 sprays per application. An average spray delivery contained about 200 mg of a formulation of CGP per squeeze. The formulation contained about 2% to about 3.75% by weight of dry CGP.
In addition to the routine application of CGP to prevent or control symptoms associated with the respiratory system, the subject has also used CGP to relieve symptoms during an episode of a condition of airway/upper respiratory tract. […] At about 10:45 A.M., the subject applied a double-dose of NasoCell (1.75% CGP by weight) via nasal inhalation in each nostril. At about 11:30 AM, the subject's symptoms were much improved. The subject then self-administered another dose of NasoCell in each nostril. […] The subject had no trouble breathing while they were eating during lunch. […] The subject's throat was cleared of any obstructions and breathing sounds, and was wide open. The subject's nasal passages were reopened and voice cleared from an earlier morning huskiness, characteristic of a post nasal drip condition. It is noteworthy that this subject observed that after some weeks of usage, much reduced usage was required to “maintain”, and that this included the skipping of usage altogether, some days.

[3] = forced nasal lavage or spray/mist

calcium glycerophosphate
stanching nosebleeds (nosebleeds): may help in stanching nosebleeds
relief of tightness in chest next morning ([1]; about 8:00 AM next day, two sprays each nostril and two sprays into mouth instead of albuterol): felt relief and no need to use the albuterol inhaler
relief at start of an asthma attack ([1]; about 8:40 PM, 5 min after first sprays, composition about 2% (w/w) CGP, one subject): mild relief
wheeze and tightness in chest relieved ([1]; about 8:55 PM, after nasal sprays and oral inhalations from 8:35 PM, about 2% (w/w) CGP): ≥ 80%
subject felt recovered ([1]; about 10:16 PM, first application 8:35 PM, about 2% (w/w) CGP): 100%
night wake-up and inhaler use ([1]; night after the treated attack): no wake-up with shortness of breath and did not use inhaler during the night
coughing [2, 3]: complete cessation of coughing
reduction of post nasal drip [2, 3]: 95-98%
decreased drainage ([2]; forced nasal lavage, 1.5-7.5% by weight CGP, about 10-20 minutes after the lavage): 90%
throat-clearing diminished compared with prior state ([2]; forced nasal lavage, about 20-60 minutes after the lavage): about 90%
symptoms (drip, cough, breathing) ([2]; forced nasal lavage, about 1 hr to 12/24 hr after the lavage): no drip, no cough, and easy open breathing
onset of relieving effects ([2]; nasal spray/mist, about 2% to 3.75% by weight CGP, two sprays per nostril): almost instantaneously upon application
duration of benefits post application ([2]; nasal spray/mist, about 2% to 3.75% by weight CGP): about four to eight hours
night breathing ([2]; single spray per nostril at bedtime): appeared to produce better night breathing
